Laboratory results from article PMC7450057, “Enhancing intracellular accumulation and target engagement of PROTACs with reversible covalent chemistry” (Nature Communications, 2020).
Values joined by “and” are separate entries in the source; they are usually repeats but may differ in a detail not shown here. Identical values can stand only once. “Also recorded” adds a separate entry of the source.

Experiments:
p-BTK(Y233) = target: T1, p-BTK(Y233) (Mus musculus, UniProt P35991); experiment: Splenic p-BTK(Y233) level in mice after single RC-1 injection (western blot); assay type: in vivo, ICR mice; conditions: for p-BTK(Y223) level, mean: Figure 5d, DMSO = 100; for p-BTK(Y233) quantification: Supplementary Figure 8, individual animals
T1 construct: from tissue; host or cells: spleen of female ICR mice
Description: To investigate the protein degradation effect of RC-1 in vivo, mice were subjected to single RC-1 administration at the dose of 50 or 100 mg kg^−1 (i.p.) or seven once-daily RC-1 administration at the dose of 20 mg kg^−1 (i.p.) (n = 2–3). Twenty-four hours after the one-time RC-1 injection or 24 h after the 7th injection, mice were anesthetized with isoflurane and the whole spleen was dissected and stored at −80 °C for western blot analysis of protein level.
Supplementary Figure 8. Protein degradation by BTK PROTAC RC-1 in mouse spleen. ICR mice were subjected to single IP injection of RC-1 at the dose of 50 mg/kg (n = 4) or 100 mg/kg (n = 3) and spleens were harvested 24 h after injection. (a) The splenic p-BTK(Y233), BTK, IKZF1 and IKZF3 levels were measured with Western blot. (b). Quantification of protein levels shown in (a). Data are presented as mean values ± SEM.
Asterisks indicate that the differences between samples are statistically significant, using two-tailed, unpaired t- […]
test (* p < 0.05; significant).
(1 picture or pasted object on this page, not shown here)

[1] = system: BTK, pBTK, IKZF1, and IKZF3; experiment: Degradation of BTK, pBTK, IKZF1 and IKZF3 in Mino cells (western blot); assay type: cell-based
Description: (§1) The collected cells and spleen tissues were lysed in RIPA lysis buffer (50 mM Tris-HCl, pH 7.4, 150 mM NaCl, 1% NP-40, 0.5% sodium deoxycholate, 0.1% SDS) supplemented with Halt™ Protease and Phosphatase Inhibitor Cocktail (Thermo Fisher Scientific, Cat. No. PI78440) immediately before use. Lysates were centrifuged at 15,000 × g for 10 min at 4 °C and the supernatant was quantified for total protein concentration using the Pierce BCA Protein Assay (Thermo Fisher Scientific, Cat. No. 23225). Thirty micrograms of protein were loaded onto sodium dodecyl sulfate−polyacrylamide gel for electrophoresis (Bio-Rad) and transferred onto PVDF membranes (Millipore, Cat. No. IPVH00010). […] Imaging was performed using the ECL Prime chemiluminescent western blot detection reagents (GE Healthcare, Cat. No. RPN2232) by visualization of the blots to X-Ray film or with an Imager (Kindle Biosciences, Cat. No. D1001). All western blots were subsequently processed and quantified with Imager software. Protein level was normalized to β-actin or GAPDH loading controls.

wild-type BTK = target: T2, wild-type BTK (Homo sapiens, UniProt Q06187); experiment: BTK degradation in XLA cells overexpressing wild-type BTK (western blot); assay type: cell-based; conditions: 24 h
T2 construct: expressed in transfected cells; host or cells: XLA cells (gift from Dr. Woyach)
Description: XLA cells overexpressing wild-type BTK or mutant C481S BTK were plated at the same cell number and density as the above experiments and were treated with RC-1, IRC-1, or RNC-1 at the dose of 1.6, 8.0, 40, 200, and 1000 nM for 24 h. After completion of treatment, all the cells were collected and processed for western blot analysis.
as §1

T1 sequence (P35991 whole entry): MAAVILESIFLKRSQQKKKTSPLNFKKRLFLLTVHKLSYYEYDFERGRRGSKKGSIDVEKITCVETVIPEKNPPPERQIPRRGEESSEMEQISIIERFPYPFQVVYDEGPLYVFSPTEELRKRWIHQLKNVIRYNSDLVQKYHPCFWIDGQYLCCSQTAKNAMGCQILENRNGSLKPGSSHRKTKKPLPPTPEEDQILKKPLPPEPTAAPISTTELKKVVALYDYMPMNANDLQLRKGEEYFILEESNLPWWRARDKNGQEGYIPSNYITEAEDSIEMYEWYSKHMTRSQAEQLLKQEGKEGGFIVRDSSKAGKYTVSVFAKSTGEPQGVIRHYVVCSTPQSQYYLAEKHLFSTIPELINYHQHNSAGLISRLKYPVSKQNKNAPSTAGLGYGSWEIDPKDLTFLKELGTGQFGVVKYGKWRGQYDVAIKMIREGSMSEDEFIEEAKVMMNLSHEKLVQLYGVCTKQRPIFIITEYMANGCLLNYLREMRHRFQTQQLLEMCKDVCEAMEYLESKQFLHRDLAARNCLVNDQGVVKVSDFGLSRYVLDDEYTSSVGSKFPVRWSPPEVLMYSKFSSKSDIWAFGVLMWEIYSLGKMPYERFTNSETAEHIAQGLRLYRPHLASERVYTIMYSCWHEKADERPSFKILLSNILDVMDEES
T2 sequence (Q06187 whole entry): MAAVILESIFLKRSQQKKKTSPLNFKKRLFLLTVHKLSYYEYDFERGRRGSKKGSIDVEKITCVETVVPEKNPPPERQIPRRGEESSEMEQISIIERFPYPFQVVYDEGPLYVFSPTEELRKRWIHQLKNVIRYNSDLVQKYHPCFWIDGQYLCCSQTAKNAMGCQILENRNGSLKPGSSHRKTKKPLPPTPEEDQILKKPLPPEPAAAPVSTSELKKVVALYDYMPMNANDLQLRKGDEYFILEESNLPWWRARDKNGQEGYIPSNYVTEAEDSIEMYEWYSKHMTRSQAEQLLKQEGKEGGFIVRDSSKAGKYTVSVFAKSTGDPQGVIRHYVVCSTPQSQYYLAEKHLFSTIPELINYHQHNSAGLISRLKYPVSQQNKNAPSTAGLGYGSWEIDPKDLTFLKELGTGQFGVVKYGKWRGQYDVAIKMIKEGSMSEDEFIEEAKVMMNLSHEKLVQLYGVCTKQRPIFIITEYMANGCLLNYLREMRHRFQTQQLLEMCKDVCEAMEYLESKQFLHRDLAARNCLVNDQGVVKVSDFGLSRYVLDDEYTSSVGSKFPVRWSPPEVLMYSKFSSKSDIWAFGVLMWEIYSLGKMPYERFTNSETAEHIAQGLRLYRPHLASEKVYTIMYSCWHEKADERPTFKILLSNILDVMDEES

Structure (SMILES): CN(CCCNC(=O)CNc1cccc2c1C(=O)N(C1CCC(=O)NC1=O)C2=O)C(C)(C)C=C(C#N)C(=O)N1CCC[C@@H](n2nc(-c3ccc(Oc4ccccc4)cc3)c3c(N)ncnc32)C1 (stereo partly drawn) [RC-1]
- p-BTK(Y223) level, mean (p-BTK(Y233); 1 injection): 96.2894
- p-BTK(Y223) level, mean (p-BTK(Y233); 7 injections): 85.9605
- p-BTK(Y233) quantification (p-BTK(Y233); RC-1 50 mg/kg, 50 mg/kg): 61.7244 and 50.2464 and 71.4895 and 26.7569
- p-BTK(Y233) quantification (p-BTK(Y233); RC-1 100 mg/kg, 100 mg/kg): 42.1872 and 10.8062 and 16.7176
- degradation of BTK, pBTK, IKZF1, IKZF3 (in words) [1]: induced degradation of BTK, pBTK, IKZF1, and IKZF3; also recorded: can degrade not only BTK and phosphorylated BTK but also IKZF1 and IKZF3
- BTK degradation (in words) (wild-type BTK): dose-dependent BTK degradation; also recorded: degrades both wild-type BTK and the C481S mutant with similar potency
